Data reported in patent publication US20210283064A1, “STABLE, BIOADHESIVE, AND DIFFUSION-RESTRICTIVE COACERVATE” (The Chinese University of Hong Kong, priority 2020, published 2021).

Tested on: DSS-induced colitis
Assay: Rat model of DSS-induced colitis
Assay type: in vivo, SD rats
Conditions: H&E-stained colon sections, oral gavage days 1, 3, 5, sacrifice day 7
Source text: SD rats weighing around 250 g were given 4.5% DSS in drinking water for 7 days to develop acute colitis. Clinical manifestations of the colitis, such as severe rectal bleeding, watery diarrhea, and colonic edema were observed after 7 days. […] Untreated colitic SD rats were used as the negative control. All SD rats were allowed unrestricted access to water and standard laboratory diet before and after oral gavage and sacrificed on day 7 for further evaluation of colon weight and length, histological severity, IBD-associated colonic myeloperoxidase (MPO)-activity, mRNA levels of tight junction-associated proteins (ZO-1 and occludin-1) and pro-inflammatory cytokines, such as interleukin IL-1β and tumor necrosis factor (TNF) in the distal colon.

“dexamethasone sodium phosphate [Dex-P/PBS]” was tested, and the mean histopathology score was 1.917.
